In patent US20210363110A1, “4-METHYLDIHYDROPYRIMIDINONE COMPOUNDS AND PHARMACEUTICAL USE THEREOF” (Japan Tobacco Inc., priority 2018, published 2021):
≈ marks a conversion by molar mass, not a printed value. Like-named read-outs stand apart in the source and are kept apart here.

Tests used:
[1] = Metabolic stability in liver microsomes, dog; type: in vitro ADME; conditions: residual ratio of unreacted substance, 0.2 mg/mL microsomes, NADPH generating system
Method: A test solution was prepared by diluting 10 mM DMSO solution of a test substance with acetonitrile by 100 times.
Human and animal liver microsomes (SEKISUI XENOTECH; Human (H2610), Rat (R1000), Mouse (M1000), Monkey (P2000), Dog (D1000)) were adjusted with potassium phosphate buffer (pH 7.4) to 0.2 mg/mL in the reaction system. Then, 1% of the solution of a test substance prepared was added to the reaction system. Thereto was added an NADPH generating system (prepared according to the method of Non Patent Literature 28), and the metabolic reaction was initiated. At a designated time, 0.1% formic acid-acetonitrile/water (3:1) was added thereto, and the reaction was terminated.
(§1) The sample after termination of the reaction was separated by centrifugation (1400 g, 20 min.), and then the supernatant was measured by LC/MS (UPLC-SQD (waters)) to calculate a residual ratio of unreacted substances.

[2] = Metabolic stability in hepatocytes, human; type: in vitro ADME; conditions: residual ratio of unreacted substance, 1×10^6 cells/mL
Method: (§2) A test solution was prepared by diluting 10 mM DMSO solution of a test substance with acetonitrile by 20 times.
(§3) Human and animal cryopreserved hepatocyte (BIOIVT; Human (IVT-X008000), Rat (IVT-M00005), Monkey (IVT-M00305), Dog (IVT-M00205)) were adjusted with William's Medium E (SIGMA; W1878) to 1×10^6 cells/mL of a cell suspension, which was then added to a 96-well plate. Then, 1% of the solution of a test substance prepared was added to the reaction system, and the metabolic reaction was initiated. At a designated time, 0.1% formic acid-acetonitrile was added thereto, and the reaction was terminated.
as §1

[3] = Metabolic stability in hepatocytes, monkey; type: in vitro ADME; conditions: residual ratio of unreacted substance, 1×10^6 cells/mL
Method: as §2, §3, §1

[4] = Measurement of solubility (JP1, JP2, FaSSIF, FeSSIF); type: physicochemical; conditions: thermodynamic from solid, shaken 4 hours
Method: A 10 mM DMSO solution (10 μL) of test substance was added to a 96-well plate, and the mixture was concentrated and dried with a centrifugal evaporator (Genevac HT-4X). 200 μL of each solvent (JP1, JP2, FaSSIF, FeSSIF) (see Non Patent Literatures 29 and 30) was added to the well after evaporation. The mixture was shaken at room temperature at 2500 rpm for 4 hours. Then, the mixture was filtered in two parts with MultiScreen PCF filter (MERCK Millipore; MSSLBPC) to give samples (50 and 100 μL). 40 μL was collected from the sample obtained in the second filtration, and thereto was added acetonitrile (300 μL). After centrifugation (4000 g, 5 min.) of the mixture, a part of the supernatant was measured by LC-UV/MS (UPLC-Premier (waters)).

[5] = test system: IL-17 production in plasmas; assay: IL-17 production in plasmas of antigen-sensitized mice; type: in vivo, C57BL/6J mice; conditions: for IL-17 concentration in plasma, % of control, 0.3 mg/kg: 0.3 mg/kg orally once daily for 7 days; for IL-17 concentration in plasma, % of control, 0.3 mg/kg / IL-17 concentration in plasma, % of control, 1 mg/kg: MOG/CFA/PTX-sensitized mice, blood at day 8, Normal 0%, Vehicle 100%; for IL-17 concentration in plasma, % of control, 1 mg/kg: 1 mg/kg orally once daily for 7 days; for ED50: Mus musculus, 168 h, oral once daily for 7 days, antigen-sensitized mice, calculated from the 0.3 and 1 mg/kg groups, read-out: ED50 (dose where the IL-17 concentration was decreased by 50%)
Method: Effects of test substances on IL-17 production in plasmas were assessed in antigen-sensitized mice. Antigen sensitization was performed according to Non Patent Literature 31. Nine-week old female C57BL/6J mice (Japan Charles River K. K.) were used as a test animal.
An emulsion prepared by mixing 3 mg/mL of myelin oligodendrocyte glycoprotein (MOG; ANASPEC) and 4 mg/mL of complete Freund's adjuvant (CFA; Chondrex) in an equal ratio was administered subcutaneously to a mouse at the bilateral abdomens at a volume of 50 μL/site (day 1). 1 μg/mL of pertussis toxin (PTX; List Biological Laboratories) was administered intraperitoneally at a volume of 200 μL/head (day 1 and 3). Blood was collected at day 8.
Administration was performed once daily for 7 days after the administration of emulsion (day 1 to 7). 0.5% (w/v) methyl cellulose (MC) was administered orally at a volume of 10 mL/kg to Normal group (normal mice) and Vehicle group (antigen-sensitized mice), and 0.03 mg/mL or 0.1 mg/mL of a test substance suspended in 0.5% (w/v) MC was administered orally at a volume of 10 mL/kg to a compound-administered group.
(§4) Blood was separated by centrifugation, and then the IL-17 concentration in plasma was measured with Quantikine (Registered trade mark) Mouse IL-17 ELISA Kit (R&D systems, Inc.).
The IL-17 concentration of Normal group was deemed to be 0% and that of Vehicle group was deemed to be 100%. The IL-17 concentration percentage (% of control) of the compound-administered group was calculated from the following equation.
% of control=(a−b)/(c−b)×100
a: IL-17 concentration of the compound-administered group b: IL-17 concentration of the Normal group c: IL-17 concentration of the Vehicle group
Then, a dose of compound where the IL-17 concentration was decreased by 50% (ED50) was calculated from the following equation.
ED50=10^(log(A/B)×(50−D)/(C−D)+log(B); provided that ED50=B in the case D=50, and ED50>B in the case D>50 A: dosed amount of the lower dose group (i.e. 0.3 mg/kg) B: dosed amount of the higher dose group (i.e. 1 mg/kg) C: % of control at the lower dose group D: % of control at the higher dose group

[6] = test system: IL-17 production in plasmas; assay: IL-17 production in plasmas of cytokine-stimulated normal mice; type: in vivo, C57BL/6J mice; conditions: 0.1 mg/mL suspension, 0.2 mL/head orally, single, 28 hours before IL-1 beta/IL-23 i.v.; blood 2 hours after cytokine
Method: Effects of test substances on IL-17 production in plasmas were assessed in normal mice. The assessment was performed according to Non Patent Literature 32. Nine-week old female C57BL/6J mice (Japan Charles River K. K.) were used as a test animal.
A mixed solution prepared by mixing Recombinant Mouse IL-1 beta/IL-1F2 Protein (R&D systems, INC.) and Recombinant Mouse IL-23 Protein (R&D systems, INC.) at a final concentration of 1.5 μg/mL was administered intravenously to all groups at the tail vein at a volume of 200 μL/head. Blood was collected 2 hours after the administration of cytokine solution.
Administration was performed 28 hours before the administration of cytokine solution. 0.5% (w/v) methyl cellulose (MC) and 0.1 mg/mL of a test substance suspended in 0.5% (w/v) MC were administered orally at a single volume of 0.2 mL/head to Vehicle group and a compound-administered group, respectively.
as §4
The IL-17 concentration of Vehicle group was deemed to be 100%, and the IL-17 concentration percentage of the compound-administered group to the Vehicle group was calculated from the following equation.
%=a/b×100 a: IL-17 concentration of the compound-administered group b: IL-17 concentration of the Vehicle group

[7] = pH 1.2, simulated gastric fluid, JP1, room temperature, read-out: Solubility JP1
[8] = pH 6.8, aqueous buffer, JP2, room temperature, read-out: Solubility JP2
[9] = FaSSIF, room temperature, read-out: Solubility FaSSIF
[10] = FeSSIF, room temperature, read-out: Solubility FeSSIF

SMILES | Metabolic stability in liver microsomes at 60 min., Dog [1] | Metabolic stability in hepatocytes at 240 min., Human [2] | Metabolic stability in hepatocytes at 240 min., Monkey [3] | solubility at 4 h [4, 7] | solubility at 4 h [4, 8] | solubility at 4 h [4, 9] | solubility at 4 h [4, 10] | IL-17 concentration in plasma, % of control, 0.3 mg/kg [5] | IL-17 concentration in plasma, % of control, 1 mg/kg [5] | ED50 [5] | IL-17 concentration (%) relative to Vehicle group [6]
CC[C@H](C)C1=CN(C23CC(C(=O)O)(C2)C3)C(=O)N[C@@]1(C)c1ccc([C@@H]2C[C@H]2C(C)(C)C)c(Cl)c1 [Compound (2), 3-{(S)-5-((S)-sec-Butyl)-4-[4-((1R,2R)-2-tert-butyl-cyclopropyl)-3-chloro-phenyl]-4-methyl-2-oxo-3,4-dihydro-2H-pyrimidin-1-yl}bicyclo[1.1.1]pentane-1-carboxylic acid] | 95% | 94% | 85% | < 0.7 µM | 447 µM (≈ 217 µg/mL) | 445 µM (≈ 216 µg/mL) | 463 µM (≈ 225 µg/mL) | 85 (=C) % | 54 (=D) % | > 1 mg/kg | 67%
CC(C)C1=CN(C23CC(C(=O)O)(C2)C3)C(=O)N[C@@]1(C)c1ccc([C@@H]2C[C@H]2C(C)(C)C)c(Cl)c1 [Compound (1), 3-{(S)-4-[4-((1R,2R)-2-tert-Butyl-cyclopropyl)-3-chloro-phenyl]-5-isopropyl-4-methyl-2-oxo-3,4-dihydro-2H-pyrimidin-1-yl}bicyclo[1.1.1]pentane-1-carboxylic acid] | 98% | 94% | 83% | < 0.8 µM | 451 µM (≈ 212 µg/mL) | 470 µM (≈ 221 µg/mL) | ≥ 475 µM | 66 (=C) % | 24 (=D) % | 0.5 mg/kg | 52%
